# Experimental data taken from ChEMBL document CHEMBL3797052 (Eur J Med Chem, 2016).
# Key:
# [1] = Antiproliferative activity against human UO31 cells assessed as growth inhibition after 48 hrs by sulforhodamine B assay; assay type: functional; settings: UO-31, 48 h
# [2] = Antiproliferative activity against human TK10 cells assessed as growth inhibition after 48 hrs by sulforhodamine B assay; assay type: functional; settings: TK-10, 48 h; for CC50: read-out: LC50 (the source's name)
# [3] = Antiproliferative activity against human NCI-ADR-RES cells assessed as growth inhibition after 48 hrs by sulforhodamine B assay; assay type: functional
# [4] = Antiproliferative activity against human BT549 cells assessed as cell growth at 10^-8 M after 48 hrs by sulforhodamine B assay; assay type: functional; settings: BT-549, 48 h, read-out: Activity
# [5] = tested on: T47D; test: Antiproliferative activity against human T47D cells assessed as cell growth at 10^-8 M after 48 hrs by sulforhodamine B assay; assay type: functional; settings: read-out: Activity
# [6] = Antiproliferative activity against human HL-60(TB) cells assessed as cell growth at 10^-7 M after 48 hrs by sulforhodamine B assay; assay type: functional; settings: HL-60, 48 h, read-out: Activity
# [7] = Antiproliferative activity against human HOP62 cells assessed as cell growth at 10^-7 M after 48 hrs by sulforhodamine B assay; assay type: functional; settings: HOP-62, 48 h, read-out: Activity
# [8] = Antiproliferative activity against human HOP92 cells assessed as cell growth at 10^-7 M after 48 hrs by sulforhodamine B assay; assay type: functional; settings: HOP-92, 48 h, read-out: Activity
# [9] = Antiproliferative activity against human SF295 cells assessed as cell growth at 10^-7 M after 48 hrs by sulforhodamine B assay; assay type: functional; settings: SF-295, 48 h, read-out: Activity
# [10] = Antiproliferative activity against human SNB75 cells assessed as cell growth at 10^-7 M after 48 hrs by sulforhodamine B assay; assay type: functional; settings: SNB-75, 48 h, read-out: Activity
# [11] = Antiproliferative activity against human BT549 cells assessed as cell growth at 10^-4 M after 48 hrs by sulforhodamine B assay; assay type: functional; settings: BT-549, 48 h, read-out: Activity
# [12] = Antiproliferative activity against human HCT116 cells assessed as growth inhibition after 48 hrs by sulforhodamine B assay; assay type: functional; settings: HCT-116, 48 h
# [13] = Antiproliferative activity against human COLO205 cells assessed as growth inhibition after 48 hrs by sulforhodamine B assay; assay type: functional; settings: COLO 205, 48 h; for CC50: read-out: LC50 (the source's name)
# [14] = tested on: NCI-H322M; test: Antiproliferative activity against human NCI-H322M cells assessed as growth inhibition after 48 hrs by sulforhodamine B assay; assay type: functional
# [15] = Antiproliferative activity against human Hs 578T cells assessed as growth inhibition after 48 hrs by sulforhodamine B assay; assay type: functional; settings: for CC50: read-out: LC50 (the source's name)
# [16] = tested on: Serine/threonine-protein kinase B-raf (Homo sapiens), P15056 [V600E]; test: Inhibition of BRAF V600E mutant (unknown origin) at 10 uM measured after 40 mins by scintillation counting
# Chain of Serine/threonine-protein kinase B-raf (Homo sapiens), P15056 [V600E] (P15056 whole entry V600E): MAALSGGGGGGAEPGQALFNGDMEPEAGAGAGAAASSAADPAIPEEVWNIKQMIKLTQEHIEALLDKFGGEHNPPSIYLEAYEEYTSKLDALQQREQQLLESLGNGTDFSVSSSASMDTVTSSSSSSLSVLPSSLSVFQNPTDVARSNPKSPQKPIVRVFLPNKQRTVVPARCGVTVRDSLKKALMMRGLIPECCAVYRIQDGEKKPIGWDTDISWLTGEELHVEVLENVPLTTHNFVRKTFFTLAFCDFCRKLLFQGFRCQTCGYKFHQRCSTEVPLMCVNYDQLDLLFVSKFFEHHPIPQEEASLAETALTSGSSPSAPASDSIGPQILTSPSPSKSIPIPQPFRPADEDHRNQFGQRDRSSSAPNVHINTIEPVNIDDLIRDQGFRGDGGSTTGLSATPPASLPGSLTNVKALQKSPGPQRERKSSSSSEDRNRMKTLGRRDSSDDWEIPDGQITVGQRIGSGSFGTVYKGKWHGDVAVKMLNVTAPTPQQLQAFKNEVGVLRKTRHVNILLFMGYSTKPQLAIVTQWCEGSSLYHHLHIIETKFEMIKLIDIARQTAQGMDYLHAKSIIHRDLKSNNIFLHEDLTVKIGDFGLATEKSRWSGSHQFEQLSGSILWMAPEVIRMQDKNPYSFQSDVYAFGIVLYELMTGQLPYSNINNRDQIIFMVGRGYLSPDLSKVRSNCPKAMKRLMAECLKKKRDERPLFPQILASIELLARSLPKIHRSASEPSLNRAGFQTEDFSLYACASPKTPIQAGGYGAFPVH
# [17] = tested on: NCI-H226; test: Antiproliferative activity against human NCI-H226 cells assessed as cell growth at 10^-8 M after 48 hrs by sulforhodamine B assay; assay type: functional; settings: NCI-H226, 48 h, read-out: Activity
# [18] = tested on: NCI-H522; test: Antiproliferative activity against human NCI-H522 cells assessed as cell growth at 10^-8 M after 48 hrs by sulforhodamine B assay; assay type: functional; settings: NCI-H522, 48 h, read-out: Activity
# [19] = tested on: Malme-3M; test: Antiproliferative activity against human MALME-3M cells assessed as cell growth at 10^-8 M after 48 hrs by sulforhodamine B assay; assay type: functional; settings: read-out: Activity
# [20] = Antiproliferative activity against human RPMI8226 cells assessed as cell growth at 10^-6 M after 48 hrs by sulforhodamine B assay; assay type: functional; settings: RPMI-8226, 48 h, read-out: Activity
# [21] = tested on: NCI-H23; test: Antiproliferative activity against human NCI-H23 cells assessed as cell growth at 10^-6 M after 48 hrs by sulforhodamine B assay; assay type: functional; settings: NCI-H23, 48 h, read-out: Activity
# [22] = Antiproliferative activity against human HCC2998 cells assessed as cell growth at 10^-6 M after 48 hrs by sulforhodamine B assay; assay type: functional; settings: HCC 2998, 48 h, read-out: Activity
# [23] = Antiproliferative activity against human HCT116 cells assessed as cell growth at 10^-6 M after 48 hrs by sulforhodamine B assay; assay type: functional; settings: HCT-116, 48 h, read-out: Activity
# [24] = Antiproliferative activity against human SF268 cells assessed as cell growth at 10^-6 M after 48 hrs by sulforhodamine B assay; assay type: functional; settings: SF-268, 48 h, read-out: Activity
# [25] = Antiproliferative activity against human SNB19 cells assessed as cell growth at 10^-6 M after 48 hrs by sulforhodamine B assay; assay type: functional; settings: SNB-19, 48 h, read-out: Activity
# [26] = Antiproliferative activity against human HL-60(TB) cells assessed as cell growth at 10^-4 M after 48 hrs by sulforhodamine B assay; assay type: functional; settings: HL-60, 48 h, read-out: Activity
# [27] = Antiproliferative activity against human SF295 cells assessed as cell growth at 10^-4 M after 48 hrs by sulforhodamine B assay; assay type: functional; settings: SF-295, 48 h, read-out: Activity
# [28] = Antiproliferative activity against human IGROV1 cells assessed as cell growth at 10^-8 M after 48 hrs by sulforhodamine B assay; assay type: functional; settings: IGROV-1, 48 h, read-out: Activity
# [29] = tested on: ACHN; test: Antiproliferative activity against human ACHN cells assessed as cell growth at 10^-8 M after 48 hrs by sulforhodamine B assay; assay type: functional; settings: read-out: Activity
# [30] = Antiproliferative activity against human OVCAR5 cells assessed as cell growth at 10^-6 M after 48 hrs by sulforhodamine B assay; assay type: functional; settings: OVCAR-5, 48 h, read-out: Activity
# [31] = tested on: ACHN; test: Antiproliferative activity against human ACHN cells assessed as cell growth at 10^-6 M after 48 hrs by sulforhodamine B assay; assay type: functional; settings: read-out: Activity
# [32] = tested on: SK-MEL-5; test: Antiproliferative activity against human SK-MEL-5 cells assessed as cell growth at 10^-4 M after 48 hrs by sulforhodamine B assay; assay type: functional; settings: SK-MEL-5, 48 h, read-out: Activity
# [33] = Antiproliferative activity against human OVCAR5 cells assessed as cell growth at 10^-4 M after 48 hrs by sulforhodamine B assay; assay type: functional; settings: OVCAR-5, 48 h, read-out: Activity
# [34] = Antiproliferative activity against human OVCAR8 cells assessed as cell growth at 10^-4 M after 48 hrs by sulforhodamine B assay; assay type: functional; settings: OVCAR-8, 48 h, read-out: Activity
# [35] = tested on: A498; test: Antiproliferative activity against human A498 cells assessed as cell growth at 10^-4 M after 48 hrs by sulforhodamine B assay; assay type: functional; settings: A498, 48 h, read-out: Activity
# [36] = tested on: MDA-MB-231; test: Antiproliferative activity against human MDA-MB-231 cells assessed as cell growth at 10^-4 M after 48 hrs by sulforhodamine B assay; assay type: functional; settings: MDA-MB-231, 48 h, read-out: Activity
# [37] = Antiproliferative activity against human Hs 578T cells assessed as cell growth at 10^-4 M after 48 hrs by sulforhodamine B assay; assay type: functional; settings: read-out: Activity
smiles,measurement,setting,value
CNC(=O)c1cc(Oc2ccc3nc(NC(=O)Nc4cc(C(F)(F)F)cc(C(F)(F)F)c4)sc3c2)ccn1,GI50,[1],1260 nM
same,TGI,[1],2680 nM
same,CC50,[1]; read-out: LC50 (the source's name),5710 nM
same,GI50,[2],1670 nM
same,TGI,[2],3350 nM
same,CC50,[2],6720 nM
same,GI50,[3],1270 nM
same,TGI,[3],3190 nM
same,growth at 0.01 µM,[4],89%
same,growth at 0.01 µM,[5],85%
same,growth at 0.1 µM,[6],31%
same,growth at 0.1 µM,[7],91%
same,growth at 0.1 µM,[8],98%
same,growth at 0.1 µM,[9],92%
same,growth at 0.1 µM,[10],82%
same,growth at 100 µM,[11],-63%
same,GI50,[12],1120 nM
same,LC50 (concentration killing 50% of the starting cells),[12],5370 nM
same,TGI,[12],2460 nM
same,GI50,[13],822 nM
same,TGI,[13],2320 nM
same,CC50,[13],5820 nM
same,GI50,[14],1490 nM
same,TGI,[14],3650 nM
same,GI50,[15],1650 nM
same,TGI,[15],4840 nM
same,CC50,[15],> 100000 nM
same,inhibition,[16],49.9%
same,growth at 0.01 µM,[17],84%
same,growth at 0.01 µM,[18],95%
same,growth at 0.01 µM,[19],96%
same,growth at 1 µM,[20],51%
same,growth at 1 µM,[21],36%
same,growth at 1 µM,[22],66%
same,growth at 1 µM,[23],57%
same,growth at 1 µM,[24],65%
same,growth at 1 µM,[25],62%
same,growth at 100 µM,[26],-59%
same,growth at 100 µM,[27],-71%
same,growth at 0.01 µM,[28],103%
same,growth at 0.01 µM,[29],94%
same,growth at 1 µM,[30],77%
same,growth at 1 µM,[31],32%
same,growth at 100 µM,[32],-72%
same,growth at 100 µM,[33],-74%
same,growth at 100 µM,[34],-96%
same,growth at 100 µM,[35],-93%
same,growth at 100 µM,[36],-59%
same,growth at 100 µM,[37],-38%
CNC(=O)c1cc(Oc2ccc3nc(NC(=O)Nc4ccc(Cl)c(C(F)(F)F)c4)sc3c2)ccn1,GI50,[1],2170 nM
same,GI50,[2],2290 nM
same,TGI,[2],4620 nM
same,CC50,[2],9320 nM
same,GI50,[3],2430 nM
same,LC50 (concentration killing 50% of cells),[3],> 100000 nM
same,growth at 0.01 µM,[4],95%
same,growth at 0.01 µM,[5],90%
same,growth at 0.1 µM,[6],110%
same,growth at 0.1 µM,[7],95%
same,growth at 0.1 µM,[8],80%
same,growth at 0.1 µM,[9],88%
same,growth at 0.1 µM,[10],81%
same,growth at 100 µM,[11],-6%
same,GI50,[12],1890 nM
same,LC50 (concentration killing 50% of the starting cells),[12],> 100000 nM
same,TGI,[12],5390 nM
same,CC50,[13],> 100000 nM
same,GI50,[14],2620 nM
same,LC50 (50% lethal concentration),[14],> 100000 nM
same,GI50,[15],1530 nM
same,TGI,[15],6270 nM
same,CC50,[15],> 100000 nM
same,inhibition,[16],55.1%
same,growth at 0.01 µM,[17],93%
same,growth at 0.01 µM,[18],98%
same,growth at 0.01 µM,[19],104%
same,growth at 1 µM,[20],82%
same,growth at 1 µM,[21],88%
same,growth at 1 µM,[22],94%
same,growth at 1 µM,[23],80%
same,growth at 1 µM,[24],78%
same,growth at 1 µM,[25],85%
same,growth at 100 µM,[26],59%
same,growth at 100 µM,[27],-82%
same,growth at 0.01 µM,[28],102%
same,growth at 0.01 µM,[29],97%
same,growth at 1 µM,[30],90%
same,growth at 1 µM,[31],93%
same,growth at 100 µM,[32],57%
same,growth at 100 µM,[33],-24%
same,growth at 100 µM,[34],-25%
same,growth at 100 µM,[35],-40%
same,growth at 100 µM,[36],-53%
same,growth at 100 µM,[37],-12%
